Where two headings read alike, the source gives them in different places.

From patent EP3625243B1, “TAILORED CYCLODEPSIPEPTIDES AS POTENT NON-COVALENT SERINE PROTEASE INHIBITORS” (Universität Duisburg-Essen, priority 2017, dated 2018) come the findings set out here.

For test [1], the target named is T1, HTRA2 (Homo sapiens, UniProt O43464).
T1 sequence (O43464 134-458): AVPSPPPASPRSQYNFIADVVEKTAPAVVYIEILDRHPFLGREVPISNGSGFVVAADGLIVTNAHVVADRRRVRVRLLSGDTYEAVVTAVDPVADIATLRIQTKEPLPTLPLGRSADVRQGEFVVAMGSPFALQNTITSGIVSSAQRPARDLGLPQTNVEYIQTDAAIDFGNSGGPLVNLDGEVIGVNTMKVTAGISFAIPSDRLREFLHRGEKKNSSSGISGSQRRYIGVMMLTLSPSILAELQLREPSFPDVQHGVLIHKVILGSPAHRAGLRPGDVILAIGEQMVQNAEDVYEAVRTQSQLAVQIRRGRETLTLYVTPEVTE
Nature of the test: Chromogenic enzyme activity assay, HTRA2.

For test [2], the target named is HTRA3 (Homo sapiens, UniProt P83110). The test can be described thus: Chromogenic enzyme activity assay, HTRA3.
Test [3] addresses T2, human neutrophil elastase (Homo sapiens, UniProt P08246).
T2 construct: purchased Enzo Life Sciences BML-SE284
T2 sequence (P08246 30-267): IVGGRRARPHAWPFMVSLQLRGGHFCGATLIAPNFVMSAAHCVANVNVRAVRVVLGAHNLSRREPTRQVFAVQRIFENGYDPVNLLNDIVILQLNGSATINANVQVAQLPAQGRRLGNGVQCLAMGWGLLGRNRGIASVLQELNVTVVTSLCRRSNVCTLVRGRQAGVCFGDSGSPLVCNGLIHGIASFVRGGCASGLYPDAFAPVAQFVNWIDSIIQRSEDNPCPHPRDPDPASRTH
The test can be described thus: Chromogenic enzyme activity assay, elastase. Type of test: biochemical.

Test [4] has as its target T3, human pancreas chymotrypsin (Homo sapiens, UniProt P17538).
T3 construct: purchased Sigma-Aldrich SRP6509-100
The test can be described thus: Chromogenic enzyme activity assay, chymotrypsin. The note with it: Table 2, substrate AAF-pNA, read-out: Ki Chymo- trypsin [a]. Type of test: biochemical.

Test [5] has as its target HTRA1 (Homo sapiens, UniProt Q92743). Nature of the test: Chromogenic enzyme activity assay, HTRA1.
For test [6], the target named is T4, bovine pancreas trypsin (Bos taurus, UniProt P00760).
T4 construct: purchased Sigma-Aldrich T1426
T4 sequence (P00760 24-246): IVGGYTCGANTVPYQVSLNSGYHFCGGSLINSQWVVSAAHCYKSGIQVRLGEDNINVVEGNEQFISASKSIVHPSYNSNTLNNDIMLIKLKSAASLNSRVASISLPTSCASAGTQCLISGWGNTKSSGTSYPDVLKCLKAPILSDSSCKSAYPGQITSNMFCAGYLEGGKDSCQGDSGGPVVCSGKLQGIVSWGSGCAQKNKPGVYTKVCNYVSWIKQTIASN
Nature of the test: Chromogenic enzyme activity assay, trypsin. As to conditions: Table 2, read-out: Ki Trypsin [c]. In kind it is biochemical.

[7] abbreviates: Table 2, substrate AAPV-pNA, read-out: Ki Elastase [b].
[8] abbreviates: Table 3, read-out: Ki Elastase [b].

HTRA3, sequence (P83110 111-436): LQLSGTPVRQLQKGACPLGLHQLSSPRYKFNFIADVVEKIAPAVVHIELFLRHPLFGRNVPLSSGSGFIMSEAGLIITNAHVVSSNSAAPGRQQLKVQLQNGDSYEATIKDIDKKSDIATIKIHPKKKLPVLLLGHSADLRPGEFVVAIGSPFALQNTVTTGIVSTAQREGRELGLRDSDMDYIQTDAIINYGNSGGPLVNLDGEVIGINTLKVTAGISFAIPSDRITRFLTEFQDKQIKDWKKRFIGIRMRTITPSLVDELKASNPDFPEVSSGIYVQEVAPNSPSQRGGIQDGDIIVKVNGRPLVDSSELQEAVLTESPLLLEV
HTRA1, sequence (Q92743 158-480): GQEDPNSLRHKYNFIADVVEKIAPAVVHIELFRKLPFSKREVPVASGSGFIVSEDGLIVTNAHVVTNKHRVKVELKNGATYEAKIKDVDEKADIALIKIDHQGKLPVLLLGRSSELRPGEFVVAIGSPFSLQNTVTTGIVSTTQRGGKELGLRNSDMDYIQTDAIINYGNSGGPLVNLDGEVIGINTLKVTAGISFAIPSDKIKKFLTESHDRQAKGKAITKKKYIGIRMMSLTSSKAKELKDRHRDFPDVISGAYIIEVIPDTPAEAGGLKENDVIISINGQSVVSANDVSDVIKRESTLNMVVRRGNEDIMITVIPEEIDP
T3 sequence (P17538 19-263): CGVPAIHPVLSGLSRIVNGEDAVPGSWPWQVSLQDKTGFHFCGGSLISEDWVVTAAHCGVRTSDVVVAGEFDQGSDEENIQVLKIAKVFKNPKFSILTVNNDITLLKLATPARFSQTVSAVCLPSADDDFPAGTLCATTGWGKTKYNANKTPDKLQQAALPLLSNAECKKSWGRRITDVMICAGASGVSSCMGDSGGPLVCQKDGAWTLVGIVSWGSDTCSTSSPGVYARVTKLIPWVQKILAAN

In general, Ki refers to a dissociation constant, usually derived from enzyme kinetics or from competition with a known ligand. Take `CC(C)C[C@H]1C(=O)N(C)[C@@H](Cc2ccccc2)C(=O)N[C@@H](C(C)C)C(=O)O[C@H](C)[C@H](NC(=O)[C@H](C)NC(=O)[C@H](C)NC(=O)OCc2ccccc2)C(=O)N[C@@H](C(C)C)C(=O)N[C@H]2CC[C@@H](O)N1C2=O` [Ahp1]: the Ki was 4100 ± 400 nM in test [1]; 3000 ± 500 nM in test [2]; 19 ± 3 nM in test [3] (setting [7]); more than 50000 nM in test [4]; 8200 ± 2700 nM in test [5].
Take `CC(C)C[C@H]1C(=O)N(C)[C@@H](Cc2ccccc2)C(=O)N[C@@H](C(C)C)C(=O)O[C@H](C)[C@H](NC(=O)[C@H](C)NC(=O)[C@H](C)NC(=O)OCc2ccccc2)C(=O)N[C@@H](Cc2ccccc2)C(=O)N[C@H]2CC[C@@H](O)N1C2=O` [Ahp2]: the Ki in test [1], in test [6], in test [2], in test [3] (setting [7]) and in test [5] was more than 50000 nM in each case.
With `CC(C)C[C@H]1C(=O)N(C)[C@@H](Cc2ccccc2)C(=O)N[C@@H](C(C)C)C(=O)O[C@H](c2ccccc2)[C@H](NC(=O)[C@H](C)NC(=O)[C@H](C)NC(=O)OCc2ccccc2)C(=O)N[C@@H](C(C)C)C(=O)N[C@H]2CC[C@@H](O)N1C2=O` [Ahp3], the Ki in test [4] was more than 50000 nM.
`CC(C)C[C@H]1C(=O)N(C)[C@@H](Cc2ccccc2)C(=O)N[C@@H](C(C)C)C(=O)O[C@H](C)[C@H](NC(=O)[C@H](Cc2ccccc2)NC(=O)[C@H](C)NC(=O)OCc2ccccc2)C(=O)N[C@@H](C(C)C)C(=O)N[C@H]2CC[C@@H](O)N1C2=O` [Ahp4]: the “HTRA2 inhibition potency relative to Ahp1” value in test [1] (compared with Ahp1) was “more than ten-fold more potent”. Moreover, the Ki in test [4] was more than 50000 nM.
For `CC(C)[C@@H]1NC(=O)[C@@H](NC(=O)[C@H](C)NC(=O)[C@H](C)NC(=O)OCc2ccccc2)[C@@H](C)OC(=O)[C@H](C(C)C)NC(=O)[C@H](Cc2ccccc2)N(C)C(=O)[C@H](Cc2ccccc2)N2C(=O)[C@H](CC[C@H]2O)NC1=O` [Ahp6], the Ki in test [4] was more than 50000 nM.
`CC(C)C[C@H]1C(=O)N(C)[C@@H](C)C(=O)N[C@@H](C(C)C)C(=O)O[C@H](C)[C@H](NC(=O)[C@H](C)NC(=O)[C@H](C)NC(=O)OCc2ccccc2)C(=O)N[C@@H](C(C)C)C(=O)N[C@H]2CC[C@@H](O)N1C2=O` [Ahp7]: the Ki was 6900 ± 1500 nM in test [1]; more than 50000 nM in test [2]; 110 ± 20 nM in test [3] (setting [7]); more than 50000 nM in test [4]; more than 50000 nM in test [5].
Consider `CC(C)C[C@H]1C(=O)N(C)[C@@H](Cc2ccccc2)C(=O)N[C@@H](Cc2ccccc2)C(=O)O[C@H](C)[C@H](NC(=O)[C@H](C)NC(=O)[C@H](C)NC(=O)OCc2ccccc2)C(=O)N[C@@H](C(C)C)C(=O)N[C@H]2CC[C@@H](O)N1C2=O` [Ahp8], for which the Ki in test [4] is more than 50000 nM.
Regarding `CC(C)C[C@H]1C(=O)N(C)[C@@H](Cc2ccccc2)C(=O)N[C@@H](C(C)C)C(=O)O[C@H](C(C)C)[C@H](NC(=O)[C@H](C)NC(=O)[C@H](C)NC(=O)OCc2ccccc2)C(=O)N[C@@H](C(C)C)C(=O)N[C@H]2CC[C@@H](O)N1C2=O` [Ahp10], the Ki is 260 ± 30 nM in test [1]; 480 ± 70 nM in test [2]; 18 ± 4 nM in test [3] (setting [7]); more than 50000 nM in test [4]; 2400 ± 600 nM in test [5]. For the same compound, in test [1] (Table 2), the “Ki (HTRA2)” value was “sub-µM”.
Consider `CC(C)C[C@H]1C(=O)N(C)[C@@H](Cc2ccccc2)C(=O)N[C@@H](C(C)C)C(=O)O[C@H](C)[C@H](NC(=O)[C@H](C)NC(=O)[C@H](C)NC(=O)OCc2ccccc2)C(=O)N[C@@H](C)C(=O)N[C@H]2CC[C@@H](O)N1C2=O` [Ahp13], for which the Ki turned out to be 260 nM in test [1], 980 nM in test [2], 26 nM in test [3] (setting [8]) and 4260 nM in test [5].
`CC[C@@H]1NC(=O)[C@@H](NC(=O)[C@H](C)NC(=O)[C@H](C)NC(=O)OCc2ccccc2)[C@@H](C)OC(=O)[C@H](C(C)C)NC(=O)[C@H](Cc2ccccc2)N(C)C(=O)[C@H](CC(C)C)N2C(=O)[C@H](CC[C@H]2O)NC1=O` [Ahp14]: the inhibitory constant (Ki) came out at 700 nM in test [1], 1460 nM in test [2], 470 nM in test [3] (setting [8]) and 2970 nM in test [5].
As for `CCC[C@@H]1NC(=O)[C@@H](NC(=O)[C@H](C)NC(=O)[C@H](C)NC(=O)OCc2ccccc2)[C@@H](C)OC(=O)[C@H](C(C)C)NC(=O)[C@H](Cc2ccccc2)N(C)C(=O)[C@H](CC(C)C)N2C(=O)[C@H](CC[C@H]2O)NC1=O` [Ahp15], the Ki in test [1] is 690 nM; in test [2], more than 50000 nM; in test [3] (setting [8]) it was 130 nM; in test [5], 7000 nM.
As to `CCC(C)[C@@H]1NC(=O)[C@@H](NC(=O)[C@H](C)NC(=O)[C@H](C)NC(=O)OCc2ccccc2)[C@@H](C)OC(=O)[C@H](C(C)C)NC(=O)[C@H](Cc2ccccc2)N(C)C(=O)[C@H](CC(C)C)N2C(=O)[C@H](CC[C@H]2O)NC1=O` (some centres unmarked) [Ahp16], the Ki was more than 50000 nM in test [1], more than 50000 nM in test [2], 500 nM in test [3] (setting [8]) and more than 50000 nM in test [5].
Turning to `C=CC[C@@H]1NC(=O)[C@@H](NC(=O)[C@H](C)NC(=O)[C@H](C)NC(=O)OCc2ccccc2)[C@@H](C)OC(=O)[C@H](C(C)C)NC(=O)[C@H](Cc2ccccc2)N(C)C(=O)[C@H](CC(C)C)N2C(=O)[C@H](CC[C@H]2O)NC1=O` [Ahp17], the Ki in test [1] is 1380 nM; in test [2] it was 840 nM; in test [3] (setting [8]) it was 160 nM; in test [5], more than 50000 nM.
Take `C#CC[C@@H]1NC(=O)[C@@H](NC(=O)[C@H](C)NC(=O)[C@H](C)NC(=O)OCc2ccccc2)[C@@H](C)OC(=O)[C@H](C(C)C)NC(=O)[C@H](Cc2ccccc2)N(C)C(=O)[C@H](CC(C)C)N2C(=O)[C@H](CC[C@H]2O)NC1=O` [Ahp18]: the figures for the Ki in test [2], in test [3] (setting [8]) and in test [5] were 17900 nM, 200 nM and more than 50000 nM, respectively.
Regarding `CC(C)C[C@H]1C(=O)N(C)[C@@H](Cc2ccccc2)C(=O)N[C@@H](C(C)C)C(=O)O[C@H](C)[C@H](NC(=O)[C@H](C)NC(=O)[C@H](C)NC(=O)OCc2ccccc2)C(=O)N[C@@H](C2CCCCC2)C(=O)N[C@H]2CC[C@@H](O)N1C2=O` [Ahp21], the Ki in test [1] (read-out: Ki HTRA2 [a], Table 3, human HTRA proteases) was more than 50000 nM; in test [2] (read-out: Ki HTRA3 [a], Table 3, human HTRA proteases), more than 50000 nM; in test [3] (setting [8]), more than 50000 nM; in test [5] (read-out: Ki HTRA1 [a], Table 3, human HTRA proteases) it was more than 50000 nM.
